Experimental data from ChEMBL document CHEMBL1156569, “Structural basis for the improved drug resistance profile of new generation benzophenone non-nucleoside HIV-1 reverse transcriptase inhibitors” (J Med Chem, 2008).

Key:
Assay type in all cases: functional, organism-based
Conditions in all cases: Human immunodeficiency virus 1, HeLa
[1] = system: Human immunodeficiency virus 1; test: Antiviral activity against NNRTI-resistant HIV1 with reverse transcriptase Y188L mutant in HeLa cells by MAGI assay
[2] = system: Human immunodeficiency virus 1; test: Antiviral activity against NNRTI-resistant HIV1 with reverse transcriptase G190S mutant in HeLa cells by MAGI assay
[3] = system: Human immunodeficiency virus 1; test: Antiviral activity against NNRTI-resistant HIV1 with reverse transcriptase K103N/L100I mutant in HeLa cells by MAGI assay
[4] = system: Human immunodeficiency virus 1; test: Antiviral activity against NNRTI-resistant HIV1 with reverse transcriptase K103N/P225H mutant in HeLa cells by MAGI assay
[5] = system: Human immunodeficiency virus 1; test: Antiviral activity against NNRTI-resistant HIV1 with reverse transcriptase G190A mutant in HeLa cells by MAGI assay
[6] = system: Human immunodeficiency virus 1; test: Antiviral activity against NNRTI-resistant HIV1 with reverse transcriptase V106I/Y181C mutant in HeLa cells by MAGI assay
[7] = system: Human immunodeficiency virus 1; test: Antiviral activity against NNRTI-resistant HIV1 with reverse transcriptase V106A mutant in HeLa cells by MAGI assay
[8] = system: Human immunodeficiency virus 1; test: Antiviral activity against NNRTI-resistant HIV1 with reverse transcriptase G190E mutant in HeLa cells by MAGI assay
[9] = system: Human immunodeficiency virus 1; test: Antiviral activity against NNRTI-resistant HIV1 with reverse transcriptase Y181C mutant in HeLa cells by MAGI assay
[10] = system: Human immunodeficiency virus 1; test: Antiviral activity against NNRTI-resistant HIV1 with reverse transcriptase K103N mutant in HeLa cells by MAGI assay
[11] = system: Human immunodeficiency virus 1; test: Antiviral activity against NNRTI-resistant HIV1 with reverse transcriptase V106I mutant in HeLa cells by MAGI assay
[12] = system: Human immunodeficiency virus 1; test: Antiviral activity against wild type HIV1 in HeLa cells by MAGI assay
[13] = system: Human immunodeficiency virus 1; test: Antiviral activity against NNRTI-resistant HIV1 with reverse transcriptase K103N/Y181C mutant in HeLa cells by MAGI assay
[14] = system: Human immunodeficiency virus 1; test: Antiviral activity against NNRTI-resistant HIV1 with reverse transcriptase P236L mutant in HeLa cells by MAGI assay
[15] = system: Human immunodeficiency virus 1; test: Antiviral activity against NNRTI-resistant HIV1 with reverse transcriptase V106A/Y181C mutant in HeLa cells by MAGI assay
[16] = system: Human immunodeficiency virus 1; test: Antiviral activity against NNRTI-resistant HIV1 with reverse transcriptase V106M mutant in HeLa cells by MAGI assay
[17] = system: Human immunodeficiency virus 1; test: Antiviral activity against NNRTI-resistant HIV1 with reverse transcriptase K103N/G190A mutant in HeLa cells by MAGI assay
[18] = system: Human immunodeficiency virus 1; test: Antiviral activity against NNRTI-resistant HIV1 with reverse transcriptase V108I mutant in HeLa cells by MAGI assay
[19] = system: Human immunodeficiency virus 1; test: Antiviral activity against NNRTI-resistant HIV1 with reverse transcriptase K103N/V108I mutant in HeLa cells by MAGI assay
[20] = system: Human immunodeficiency virus 1; test: Antiviral activity against NNRTI-resistant HIV1 with reverse transcriptase L100I mutant in HeLa cells by MAGI assay
[21] = system: Human immunodeficiency virus 1; test: Antiviral activity against NNRTI-resistant HIV1 with reverse transcriptase V108I/Y181C mutant in HeLa cells by MAGI assay
[22] = system: Human immunodeficiency virus 1; test: Antiviral activity against NNRTI-resistant HIV1 with reverse transcriptase K101E mutant in HeLa cells by MAGI assay
[23] = system: Human immunodeficiency virus 1; test: Antiviral activity against NNRTI-resistant HIV1 with reverse transcriptase E138K mutant in HeLa cells by MAGI assay
[24] = system: Human immunodeficiency virus 1; test: Antiviral activity against NNRTI-resistant HIV1 with reverse transcriptase Y188C mutant in HeLa cells by MAGI assay
[25] = system: Human immunodeficiency virus 1; test: Antiviral activity against NNRTI-resistant HIV1 with reverse transcriptase P225H mutant in HeLa cells by MAGI assay

| SMILES | IC50 [1] | IC50 [3] | IC50 [4] | IC50 [5] | IC50 [6] | IC50 [7] | IC50 [8] | IC50 [9] | IC50 [10] | IC50 [11] | IC50 [12] | IC50 [13] | IC50 [14] | IC50 [15] | IC50 [17] | IC50 [18] | IC50 [19] | IC50 [20] | IC50 [22] | IC50 [24] | other results |
| --- | --- | --- | --- | --- | --- | --- | --- | --- | --- | --- | --- | --- | --- | --- | --- | --- | --- | --- | --- | --- | --- |
| Cc1cc(S(N)(=O)=O)ccc1NC(=O)COc1ccc(Cl)cc1C(=O)c1cc(Cl)cc(C#N)c1 | 14 nM | 0.9 nM | 0.7 nM | 0.6 nM | 3.8 nM | 1.1 nM | 0.4 nM | 0.4 nM | 0.4 nM | 0.8 nM | 0.2 nM | 1.2 nM | 0.4 nM | 1 nM | 3.3 nM | 0.7 nM | 0.9 nM | 0.3 nM | 0.6 nM | 0.04 nM | IC50 [2]: 0.7 nM; IC50 [16]: 0.4 nM; IC50 [21]: 0.6 nM; IC50 [23]: 1.6 nM |
| O=C1Nc2ccc(Cl)cc2C(C#CC2CC2)(C(F)(F)F)O1 (single isomer, unassigned) [EFAVIRENZ] | 154 nM | 1200 nM | – | 5.9 nM | 3 nM | 0.8 nM | 1 nM | 0.8 nM | 17 nM | 0.9 nM | 0.4 nM | 44 nM | 0.6 nM | 2 nM | – | 1.8 nM | 94 nM | 21 nM | 2.3 nM | 1.2 nM | IC50 [2]: 89 nM; IC50 [25]: 1.3 nM; IC50 [16]: 7.2 nM; IC50 [21]: 2.7 nM; IC50 [23]: 1.2 nM |
| CC(C)Nc1cccnc1N1CCN(C(=O)c2cc3cc(NS(C)(=O)=O)ccc3[nH]2)CC1 [DELAVIRDINE] | – | > 2000 nM | > 2000 nM | 21 nM | 943 nM | 750 nM | – | – | 1600 nM | 22 nM | 88 nM | > 2000 nM | > 2000 nM | > 2000 nM | 730 nM | – | > 2000 nM | 773 nM | 537 nM | 1620 nM | – |
| Cc1cc(S(N)(=O)=O)ccc1NC(=O)COc1ccc(Cl)cc1C(=O)c1cc(F)cc(C(F)(F)F)c1 | 66 nM | 2.8 nM | 1.4 nM | 4 nM | 10 nM | 9.3 nM | 3.9 nM | 2.1 nM | 1.7 nM | 2.3 nM | 1.2 nM | 3.3 nM | 3.4 nM | 13 nM | 13 nM | 1.8 nM | 2.6 nM | 1.1 nM | 3.1 nM | 0.3 nM | IC50 [25]: 0.7 nM; IC50 [21]: 3.2 nM; IC50 [23]: 2.7 nM |
| Cc1ccnc2c1NC(=O)c1cccnc1N2C1CC1 [NEVIRAPINE] | > 2000 nM | > 2000 nM | > 2000 nM | > 2000 nM | > 2000 nM | 1870 nM | 83 nM | > 2000 nM | > 2000 nM | 89 nM | 53 nM | > 2000 nM | 59 nM | > 2000 nM | > 2000 nM | 294 nM | > 2000 nM | 304 nM | 409 nM | 801 nM | IC50 [2]: > 2000 nM; IC50 [25]: 118 nM; IC50 [16]: > 2000 nM; IC50 [21]: > 2000 nM; IC50 [23]: 71 nM |
| O=C(COc1ccc(Cl)cc1C(=O)c1ccccc1)Nc1ccccc1 | > 2000 nM | 269 nM | 56 nM | 31 nM | 1900 nM | 696 nM | 8.3 nM | 162 nM | 25 nM | 18 nM | 2 nM | 1050 nM | 5.4 nM | 902 nM | 661 nM | 19 nM | 347 nM | 21 nM | 13 nM | 122 nM | IC50 [2]: 135 nM; IC50 [25]: 3.3 nM; IC50 [16]: 155 nM; IC50 [21]: 638 nM; IC50 [23]: 27 nM |
